Laboratory results taken from US20200338082A1, “FORMULATIONS, SYSTEMS, AND METHODS FOR THERAPEUTIC TREATMENT” (priority 2017, published 2020).
Structures can show the parent of a compound that is named as a salt.

Assay: Solubility of chemotherapeutic agents in solubilizing excipients and excipient blends
Assay type: physicochemical
Settings: all organic blends: PEG400/Tween; Cremophor or Solutol/PEG400; Cremophor or Solutol/DMA or ethanol/PEG400
Experimental: Eleven compounds and seven solubilizing excipients were obtained from commercial sources (see Table 1). […] The excipients listed comprise all of the organic solubilizers currently approved by the FDA for intravenous use in human patients.
Concentration targets were calculated based on providing the same amount of drug used clinically over the time period typically allotted for each compound (see Table 2 for target concentrations). Each solubilizing mixture was started at the target concentration, and if ineffective, diluted 2-fold successively until solubilization was achieved (sometimes with the help of gentle heating, mixing, or sonication), or until the solution was tested at 1:16 the target concentration, in which case further testing was halted (this concentration is approximately what would be required to hit a target dose with a daily cartridge exchange in a delivery device).
Three primary formulation combinations were tested in this example: • Solvent and co-solvent systems (PEG400 and Tween® 20 or Tween® 80) • Surfactant and co-solvent systems (Cremophor® or Solutol® and PEG400) • Surfactant and solvent/co-solvent systems (Cremophor® or Solutol® and DMA or ethanol and PEG400) For the first two combinations, mixtures were made upfront and solubility of each compound tested within. For the third, the compound was pre-dissolved in either DMA or ethanol and the remaining components then added as a mixture.

Row | SMILES | solubility in organic blends tested
1 | CCc1c2c(nc3ccc(OC(=O)N4CCC(N5CCCCC5)CC4)cc13)-c1cc3c(c(=O)n1C2)COC(=O)[C@]3(O)CC [irinotecan] | insoluble in all of the organic blends tested
2 | O=c1[nH]cc(F)c(=O)[nH]1 [5-FU, fluorouracil] | insoluble in all of the organic blends tested
3 | N.N.O=C([O-])C1(C(=O)[O-])CCC1.[Pt+2] [carboplatin] | insoluble in all of the organic blends tested
4 | Nc1ccn([C@@H]2O[C@H](CO)[C@@H](O)C2(F)F)c(=O)n1 [gemcitabine hydrochloride] | insoluble in all of the organic blends tested

Same assay, conditions: compound pre-dissolved in dimethylacetamide (DMA)

Row | SMILES | solubility in DMA
5 | CC(=O)O[C@H]1C(=O)[C@@]2(C)[C@H]([C@H](OC(=O)c3ccccc3)[C@]3(O)C[C@H](OC(=O)[C@H](O)[C@@H](NC(=O)c4ccccc4)c4ccccc4)C(C)=C1C3(C)C)[C@]1(OC(C)=O)CO[C@@H]1C[C@@H]2O [paclitaxel] | sufficient to solubilize
6 | CC(=O)O[C@@]12CO[C@@H]1C[C@H](O)[C@@]1(C)C(=O)[C@H](O)C3=C(C)[C@@H](OC(=O)[C@H](O)[C@@H](NC(=O)OC(C)(C)C)c4ccccc4)C[C@@](O)([C@@H](OC(=O)c4ccccc4)[C@H]21)C3(C)C [docetaxel] | sufficient to solubilize
7 | CN(Cc1cnc2nc(N)nc(N)c2n1)c1ccc(C(=O)N[C@@H](CCC(=O)O)C(=O)O)cc1 [methotrexate] | sufficient to solubilize
8 | CC[C@]1(O)C[C@@H]2CN(CCc3c([nH]c4ccccc34)[C@@](C(=O)OC)(c3cc4c(cc3OC)N(C)[C@H]3[C@@](O)(C(=O)OC)[C@H](OC(C)=O)[C@]5(CC)C=CCN6CC[C@]43[C@@H]65)C2)C1 [vinblastine] | sufficient to solubilize
9 | COc1cc([C@@H]2c3cc4c(cc3[C@@H](O[C@@H]3O[C@@H]5CO[C@@H](C)O[C@H]5[C@H](O)[C@H]3O)[C@H]3COC(=O)[C@H]23)OCO4)cc(OC)c1O [etoposide] | sufficient to solubilize

Same assay, conditions: free base versus hydrochloride salt

Row | SMILES | solubility of free base instead of the salt
10 | Nc1ccn([C@@H]2O[C@H](CO)[C@@H](O)C2(F)F)c(=O)n1 [gemcitabine] | increased solubility
